Experiments:
[1] = tested on: (AT)6 (DNA, duplex) ATATATATATAT; experiment: UV-vis absorption titration, Bard fit; details: K+ (50 mM potassium phosphate), complex 10 μM, average of two titrations, [DNA] per nucleobase (stated for st-DNA)
[2] = tested on: (GC)6 (DNA, duplex) GCGCGCGCGCGC; experiment: UV-vis absorption titration, Bard fit; details: K+ (50 mM potassium phosphate), complex 10 μM, average of two titrations, [DNA] per nucleobase (stated for st-DNA)

Kb [1]	Kb [2]	SMILES
1.13 ± 0.24 × 10^6 M^-1	1.17 ± 0.53 × 10^6 M^-1	Cc1cnc2c(ccc3c(C)c(C)cnc32)c1C.Cc1cnc2c(ccc3c(C)c(C)cnc32)c1C.[Cr+3].c1ccc2cc3nc4c5cccnc5c5ncccc5c4nc3cc2c1 [Δ-1]
11.8 ± 0.35 × 10^6 M^-1	2.39 ± 0.32 × 10^6 M^-1	Cc1cnc2c(ccc3c(C)c(C)cnc32)c1C.Cc1cnc2c(ccc3c(C)c(C)cnc32)c1C.[Cr+3].c1ccc2cc3nc4c5cccnc5c5ncccc5c4nc3cc2c1 [Λ-1]

— publication PMC11653251 (2024)
